Data on 5 molecules can be found in ChEMBL document CHEMBL5465560, “Selectivity Literature for EUbOPEN Chemogenomic Library” (2024).

Experiment [1] concerns the target T1, Tyrosine-protein kinase receptor TYRO3 (Homo sapiens) (UniProt Q06418).
T1 sequence (whole entry): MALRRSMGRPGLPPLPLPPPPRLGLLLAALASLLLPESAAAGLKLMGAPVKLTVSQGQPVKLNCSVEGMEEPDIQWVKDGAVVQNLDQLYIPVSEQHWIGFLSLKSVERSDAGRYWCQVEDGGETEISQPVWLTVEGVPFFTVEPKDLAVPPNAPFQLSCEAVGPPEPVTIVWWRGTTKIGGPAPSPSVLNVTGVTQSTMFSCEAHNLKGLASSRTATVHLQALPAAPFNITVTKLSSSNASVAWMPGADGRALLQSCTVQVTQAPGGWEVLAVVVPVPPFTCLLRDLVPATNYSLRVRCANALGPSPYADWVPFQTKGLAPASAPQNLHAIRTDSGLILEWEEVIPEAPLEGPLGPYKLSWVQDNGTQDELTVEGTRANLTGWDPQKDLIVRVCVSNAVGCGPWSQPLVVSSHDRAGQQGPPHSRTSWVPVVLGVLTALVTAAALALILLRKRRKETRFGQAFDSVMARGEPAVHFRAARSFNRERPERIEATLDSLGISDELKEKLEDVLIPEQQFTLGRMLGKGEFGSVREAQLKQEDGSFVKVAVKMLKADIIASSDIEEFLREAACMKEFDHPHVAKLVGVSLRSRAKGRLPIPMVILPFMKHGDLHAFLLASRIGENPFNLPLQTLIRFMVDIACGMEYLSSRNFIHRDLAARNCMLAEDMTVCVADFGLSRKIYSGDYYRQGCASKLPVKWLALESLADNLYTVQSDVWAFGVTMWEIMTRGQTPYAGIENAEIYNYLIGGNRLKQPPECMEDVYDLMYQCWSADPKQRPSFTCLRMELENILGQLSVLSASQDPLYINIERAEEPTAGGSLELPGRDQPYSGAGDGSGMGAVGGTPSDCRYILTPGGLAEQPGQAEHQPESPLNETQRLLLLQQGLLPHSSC
The experiment can be described thus: Selectivity interaction (KinomeScan (DiscoverX)) EUB0001619a TYRO3. As to conditions: at 1 µM.

Experiment [2] concerns the target Casein kinase II subunit alpha' (Homo sapiens) (UniProt P19784). In words: Selectivity interaction (Kinase panel (DSF assay)) EUB0001559a CSNK2A2. In general terms: In DSF a fluorescence change marks the thermal transition of the protein.
The target in experiment [3] is Serine/threonine-protein kinase N2 (Homo sapiens, UniProt Q16513). The experiment can be described thus: Selectivity interaction (Kinase panel (literature)) EUB0001199aCl PKN2. As to conditions: at 1 µM.
Experiment [4] addresses Dual specificity tyrosine-phosphorylation-regulated kinase 1B (Homo sapiens, UniProt Q9Y463). In words: Selectivity interaction (KinomeScan (DiscoverX)) EUB0000655a DYRK1B. As to conditions: at 10 µM.
Experiment [5] deals with T2, Serine/threonine-protein kinase TNNI3K (Homo sapiens) (UniProt Q59H18).
T2 sequence (whole entry): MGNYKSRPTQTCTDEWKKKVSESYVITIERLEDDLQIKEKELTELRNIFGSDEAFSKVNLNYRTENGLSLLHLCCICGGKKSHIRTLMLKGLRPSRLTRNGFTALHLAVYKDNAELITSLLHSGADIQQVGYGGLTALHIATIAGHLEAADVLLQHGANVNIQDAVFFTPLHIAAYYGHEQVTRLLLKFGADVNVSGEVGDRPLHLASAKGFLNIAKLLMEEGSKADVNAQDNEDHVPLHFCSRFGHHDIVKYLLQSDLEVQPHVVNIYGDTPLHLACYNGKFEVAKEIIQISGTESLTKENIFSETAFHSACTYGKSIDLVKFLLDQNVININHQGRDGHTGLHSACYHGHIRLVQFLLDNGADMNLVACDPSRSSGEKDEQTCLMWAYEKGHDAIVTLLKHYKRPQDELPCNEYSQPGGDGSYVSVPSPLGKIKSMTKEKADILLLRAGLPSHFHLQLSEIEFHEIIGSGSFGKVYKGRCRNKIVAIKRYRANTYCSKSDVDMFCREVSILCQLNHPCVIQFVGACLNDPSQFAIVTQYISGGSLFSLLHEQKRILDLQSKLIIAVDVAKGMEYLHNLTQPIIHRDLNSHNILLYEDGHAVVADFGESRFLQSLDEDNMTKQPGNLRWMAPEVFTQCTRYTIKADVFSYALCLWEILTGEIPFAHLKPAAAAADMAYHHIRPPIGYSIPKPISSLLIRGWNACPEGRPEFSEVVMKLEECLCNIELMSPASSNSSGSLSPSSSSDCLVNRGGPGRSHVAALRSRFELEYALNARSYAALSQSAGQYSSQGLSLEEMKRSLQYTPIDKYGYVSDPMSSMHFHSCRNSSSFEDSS
The experiment can be described thus: Selectivity interaction (KinomeScan (DiscoverX)) EUB0000655a TNNI3K. As to conditions: at 10 µM.

Experiment [6] has as its target T3, Serine/threonine-protein kinase MAK (Homo sapiens) (UniProt P20794).
T3 sequence (whole entry): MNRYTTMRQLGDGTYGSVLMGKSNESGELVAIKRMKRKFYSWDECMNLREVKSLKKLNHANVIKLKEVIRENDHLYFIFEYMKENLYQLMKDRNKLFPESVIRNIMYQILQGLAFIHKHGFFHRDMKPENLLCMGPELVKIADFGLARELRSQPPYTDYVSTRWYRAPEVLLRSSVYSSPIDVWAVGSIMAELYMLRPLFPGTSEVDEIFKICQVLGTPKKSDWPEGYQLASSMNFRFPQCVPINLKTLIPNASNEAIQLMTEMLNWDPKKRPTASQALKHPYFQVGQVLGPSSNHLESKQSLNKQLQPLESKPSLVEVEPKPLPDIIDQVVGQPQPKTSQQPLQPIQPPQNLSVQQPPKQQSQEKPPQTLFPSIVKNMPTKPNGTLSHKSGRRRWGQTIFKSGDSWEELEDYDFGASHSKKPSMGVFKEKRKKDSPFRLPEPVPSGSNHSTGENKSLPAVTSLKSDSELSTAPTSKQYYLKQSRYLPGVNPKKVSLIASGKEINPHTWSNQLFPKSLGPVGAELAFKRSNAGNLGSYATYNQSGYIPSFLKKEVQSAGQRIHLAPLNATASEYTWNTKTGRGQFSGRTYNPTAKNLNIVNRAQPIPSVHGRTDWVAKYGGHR
In words: Selectivity interaction (KinomeScan (DiscoverX)) EUB0001079a MAK. As to conditions: at 1 µM.

Sequence of Dual specificity tyrosine-phosphorylation-regulated kinase 1B (Q9Y463 whole entry, looked up): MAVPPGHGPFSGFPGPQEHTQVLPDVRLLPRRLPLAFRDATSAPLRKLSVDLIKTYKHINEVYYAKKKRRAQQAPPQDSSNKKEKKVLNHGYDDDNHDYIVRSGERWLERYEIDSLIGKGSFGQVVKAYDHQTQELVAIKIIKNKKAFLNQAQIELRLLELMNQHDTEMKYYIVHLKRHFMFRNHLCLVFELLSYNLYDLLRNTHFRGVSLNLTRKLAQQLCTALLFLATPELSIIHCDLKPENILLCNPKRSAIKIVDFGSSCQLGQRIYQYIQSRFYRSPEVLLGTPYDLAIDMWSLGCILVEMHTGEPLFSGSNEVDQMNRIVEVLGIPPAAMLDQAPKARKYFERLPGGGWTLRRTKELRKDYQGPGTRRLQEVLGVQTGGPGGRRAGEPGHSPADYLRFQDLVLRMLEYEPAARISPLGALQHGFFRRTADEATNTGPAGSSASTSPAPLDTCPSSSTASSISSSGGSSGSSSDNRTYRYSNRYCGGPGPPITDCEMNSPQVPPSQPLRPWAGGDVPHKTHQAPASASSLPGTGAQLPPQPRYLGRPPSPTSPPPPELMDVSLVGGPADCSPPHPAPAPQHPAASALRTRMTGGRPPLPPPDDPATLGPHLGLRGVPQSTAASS
Sequence of Serine/threonine-protein kinase N2 (Q16513 whole entry, looked up): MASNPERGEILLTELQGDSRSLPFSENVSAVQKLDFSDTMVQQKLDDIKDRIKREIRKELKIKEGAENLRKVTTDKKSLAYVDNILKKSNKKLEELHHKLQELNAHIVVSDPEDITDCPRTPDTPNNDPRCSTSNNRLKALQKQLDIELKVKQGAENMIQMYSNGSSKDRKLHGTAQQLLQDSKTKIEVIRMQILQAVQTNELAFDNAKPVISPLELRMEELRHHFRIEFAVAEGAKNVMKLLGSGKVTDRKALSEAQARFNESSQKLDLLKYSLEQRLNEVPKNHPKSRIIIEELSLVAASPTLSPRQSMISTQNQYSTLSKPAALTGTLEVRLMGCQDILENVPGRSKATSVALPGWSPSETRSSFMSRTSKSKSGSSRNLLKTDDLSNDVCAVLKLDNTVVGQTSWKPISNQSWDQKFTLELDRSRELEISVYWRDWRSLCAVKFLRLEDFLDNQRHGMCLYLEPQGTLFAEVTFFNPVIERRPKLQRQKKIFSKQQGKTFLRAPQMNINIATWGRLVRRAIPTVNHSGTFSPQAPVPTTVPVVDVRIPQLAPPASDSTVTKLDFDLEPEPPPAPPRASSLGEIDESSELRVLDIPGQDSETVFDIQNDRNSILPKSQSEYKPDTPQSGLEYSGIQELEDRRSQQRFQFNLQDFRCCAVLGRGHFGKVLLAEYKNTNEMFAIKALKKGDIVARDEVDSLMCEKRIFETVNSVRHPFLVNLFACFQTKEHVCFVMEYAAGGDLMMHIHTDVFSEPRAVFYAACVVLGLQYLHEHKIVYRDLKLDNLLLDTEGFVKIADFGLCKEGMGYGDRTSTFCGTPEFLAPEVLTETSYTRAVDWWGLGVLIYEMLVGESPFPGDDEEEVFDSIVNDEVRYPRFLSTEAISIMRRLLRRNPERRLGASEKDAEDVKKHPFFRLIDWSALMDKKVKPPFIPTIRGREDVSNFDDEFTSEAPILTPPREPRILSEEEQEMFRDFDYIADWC
Sequence of Casein kinase II subunit alpha' (Homo sapiens) (P19784 whole entry, looked up): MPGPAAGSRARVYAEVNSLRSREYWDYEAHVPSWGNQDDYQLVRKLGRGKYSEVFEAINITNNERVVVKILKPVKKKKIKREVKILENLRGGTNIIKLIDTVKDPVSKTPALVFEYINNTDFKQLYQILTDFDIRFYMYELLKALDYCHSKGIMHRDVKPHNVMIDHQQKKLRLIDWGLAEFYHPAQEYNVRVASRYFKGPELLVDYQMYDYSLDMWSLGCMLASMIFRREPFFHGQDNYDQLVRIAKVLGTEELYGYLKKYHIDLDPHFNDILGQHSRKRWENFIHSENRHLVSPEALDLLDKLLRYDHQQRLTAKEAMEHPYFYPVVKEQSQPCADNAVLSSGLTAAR

`N#Cc1cccc(-c2c[nH]c3ncnc(N4CCOCC4)c23)c1` showed a % of control in experiment [1] of 100%.

In experiment [2], `CN(C(=O)c1cnn2cccnc12)c1cc2c(cc1N1CCOCC1)C(=O)N(C[C@@H](F)C(C)(C)O)C2` registered a dTM of 1.4 K.

`CN1Cc2nccc(-c3cn(C)nc3-c3ccc(F)cc3)c2C1=O` registered a % of inhibition in experiment [3] of 2%.

Take `CN(C)CCOc1ccc(-c2nc(-c3ccncc3)c(-c3ccc4c(c3)CC/C4=N\O)[nH]2)cc1`: the results for the % of control in experiment [4] and in experiment [5] were 100% and 76%, respectively.

The molecule `Nc1cnc(N2CCc3cc(S(=O)(=O)Nc4c(F)cc(Cl)cc4F)cc(N4CCCC4=O)c32)nc1` [TP-020n] came in with a % of control in experiment [6] of 96%.
